Experimental data from ChEMBL document CHEMBL5543167, “Design, Synthesis, and Biological Evaluation of Novel EGFR PROTACs Targeting C797S Mutation” (J Med Chem, 2024).
The source made the active and inactive calls. No cut-off for these calls is given here.

How the values were obtained:
[1] = Toxicity in BALB/c nude mouse xenografted with human H1975-TM cells assessed as effect on body weight at 25 to 100 mg/kg, po administered once daily for 31 days; assay type: organism-based; details: in vivo, 744 h, dose 25-100 mg/kg, time 31 day
[2] = test system: Protein cereblon/Epidermal growth factor receptor (Homo sapiens), P00533+Q96SW2 [L858R,T790M,C797S]; test: (§1) PROTAC activity at CRBN/EGFR L858R/T790M/C797S mutant in human H1975-TM cells assessed as induction of EGFR degradation by measuring remaining activity at 100 nM preincubated for 24 hrs followed by compound washout and measured after 6 hrs by Western blot analysis (reference value: 100%); assay type: cell-based
[3] = test system: Protein cereblon/Epidermal growth factor receptor (Homo sapiens), P00533+Q96SW2 [L858R,T790M,C797S]; test: PROTAC activity at CRBN/EGFR L858R/T790M/C797S mutant in human H1975-TM cells assessed as induction of EGFR degradation by measuring maximal efficacy at 300 nM incubated for 24 hrs by Western blot analysis relative to control; assay type: cell-based
[4] = Tmax in male Sprague-Dawley rat at 5 mg/kg, iv measured after 24 hrs by LC-MS/MS analysis; assay type: ADME, organism-based; details: in vivo
[5] = Half-life in male Sprague-Dawley rat at 5 mg/kg, iv measured after 24 hrs by LC-MS/MS analysis; assay type: ADME, organism-based; details: in vivo
[6] = test system: Protein cereblon/Epidermal growth factor receptor (Homo sapiens), P00533+Q96SW2 [L858R,T790M,C797S]; test: PROTAC activity at CRBN/EGFR L858R/T790M/C797S mutant in human H1975-TM cells assessed as induction of EGFR degradation by measuring remaining activity at 100 nM preincubated for 24 hrs followed by compound washout and measured after 48 hrs by Western blot analysis (reference value: 100%); assay type: cell-based
[7] = target: Ribosomal protein S6 kinase alpha-1 (Homo sapiens) (UniProt Q15418); test: Induction of RPS6KA1 degradation in human H1975-TM cells at 50 nM incubated for 24 hrs; assay type: cell-based
Ribosomal protein S6 kinase alpha-1 (Homo sapiens), sequence (Q15418 whole entry): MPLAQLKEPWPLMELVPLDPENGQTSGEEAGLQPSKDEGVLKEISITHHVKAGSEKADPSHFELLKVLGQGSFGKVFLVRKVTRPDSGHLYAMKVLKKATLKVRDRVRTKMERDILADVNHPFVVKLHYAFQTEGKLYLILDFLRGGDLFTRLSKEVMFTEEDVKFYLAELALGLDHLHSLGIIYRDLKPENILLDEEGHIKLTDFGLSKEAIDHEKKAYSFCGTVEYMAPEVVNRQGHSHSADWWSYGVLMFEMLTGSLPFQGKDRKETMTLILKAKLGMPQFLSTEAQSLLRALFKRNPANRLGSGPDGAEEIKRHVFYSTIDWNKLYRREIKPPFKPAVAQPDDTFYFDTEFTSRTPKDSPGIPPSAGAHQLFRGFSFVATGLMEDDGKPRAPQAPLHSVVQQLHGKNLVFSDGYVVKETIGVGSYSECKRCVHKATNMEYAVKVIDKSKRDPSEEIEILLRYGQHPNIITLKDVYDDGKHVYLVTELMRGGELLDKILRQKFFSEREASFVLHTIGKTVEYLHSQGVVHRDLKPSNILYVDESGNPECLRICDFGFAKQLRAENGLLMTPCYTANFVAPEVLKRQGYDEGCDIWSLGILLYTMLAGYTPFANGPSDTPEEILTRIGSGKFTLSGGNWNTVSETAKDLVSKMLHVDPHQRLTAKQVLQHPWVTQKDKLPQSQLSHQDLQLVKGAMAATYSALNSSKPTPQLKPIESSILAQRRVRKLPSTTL

H1975-TM [8] = test: Induction of cell cycle arrest in human H1975-TM cells harboring EGFR L858R/T790M/C797S mutant assessed as accumulation of cells at G0/G1 phase at 5 to 60 nM incubated for 24 hrs by RNase/PI staining based analysis; assay type: functional; details: dose 5-60 nM
Mus musculus [9] = test: In vivo inhibition of EGFR signaling in BALB/c nude mouse xenografted with human […] cells assessed as reduction in EGFR phosphorylation at 25 to 100 mg/kg, po administered once daily for 31 days by Western blot analysis; assay type: functional, organism-based; details: dose 25-100 mg/kg, time 31.0 day
Mus musculus [10] = test: In vivo inhibition of EGFR signaling in BALB/c nude mouse xenografted with human […] cells assessed as reduction in ERK activation at 25 to 100 mg/kg, po administered once daily for 31 days by Western blot analysis; assay type: functional, organism-based; details: dose 25-100 mg/kg, time 31.0 day
[11] = AUC (0 to infinity) in male Sprague-Dawley rat at 50 mg/kg, po measured after 24 hrs by LC-MS/MS analysis; assay type: ADME, organism-based; details: in vivo
Mus musculus [12] = test: In vivo inhibition of EGFR signaling in BALB/c nude mouse xenografted with human […] cells assessed as reduction in AKT activation at 25 to 100 mg/kg, po administered once daily for 31 days by Western blot analysis; assay type: functional, organism-based; details: dose 25-100 mg/kg, time 31.0 day
H1975-TM [13] = test: Inhibition of colony formation in human H1975-TM cells harboring EGFR L858R/T790M/C797S mutant at 3.7 to 100 nM incubated for 14 days by crystal violet staining based analysis; assay type: functional, cell-based; details: dose 3.7-100 nM, time 14.0 day
[14] = test system: Protein cereblon/Epidermal growth factor receptor (Homo sapiens), P00533+Q96SW2 [L858R,T790M,C797S]; test: PROTAC activity at CRBN/EGFR L858R/T790M/C797S mutant in human H1975-TM cells assessed as induction of EGFR degradation by measuring remaining activity at 33 nM incubated for 24 hrs by Western blot analysis (reference value: 100%); assay type: cell-based
[15] = test system: Protein cereblon/Epidermal growth factor receptor (Homo sapiens), P00533+Q96SW2 [UNDEFINED MUTATION]; test: (§2) PROTAC activity at CRBN/EGFR exon 19 deletion mutant in human PC-9 cells assessed as induction of EGFR degradation incubated for 24 hrs by Western blot analysis; assay type: cell-based
Protein cereblon/Epidermal growth factor receptor (Homo sapiens), P00533+Q96SW2 [UNDEFINED MUTATION], sequence (P00533 whole entry, looked up, stated change not applied): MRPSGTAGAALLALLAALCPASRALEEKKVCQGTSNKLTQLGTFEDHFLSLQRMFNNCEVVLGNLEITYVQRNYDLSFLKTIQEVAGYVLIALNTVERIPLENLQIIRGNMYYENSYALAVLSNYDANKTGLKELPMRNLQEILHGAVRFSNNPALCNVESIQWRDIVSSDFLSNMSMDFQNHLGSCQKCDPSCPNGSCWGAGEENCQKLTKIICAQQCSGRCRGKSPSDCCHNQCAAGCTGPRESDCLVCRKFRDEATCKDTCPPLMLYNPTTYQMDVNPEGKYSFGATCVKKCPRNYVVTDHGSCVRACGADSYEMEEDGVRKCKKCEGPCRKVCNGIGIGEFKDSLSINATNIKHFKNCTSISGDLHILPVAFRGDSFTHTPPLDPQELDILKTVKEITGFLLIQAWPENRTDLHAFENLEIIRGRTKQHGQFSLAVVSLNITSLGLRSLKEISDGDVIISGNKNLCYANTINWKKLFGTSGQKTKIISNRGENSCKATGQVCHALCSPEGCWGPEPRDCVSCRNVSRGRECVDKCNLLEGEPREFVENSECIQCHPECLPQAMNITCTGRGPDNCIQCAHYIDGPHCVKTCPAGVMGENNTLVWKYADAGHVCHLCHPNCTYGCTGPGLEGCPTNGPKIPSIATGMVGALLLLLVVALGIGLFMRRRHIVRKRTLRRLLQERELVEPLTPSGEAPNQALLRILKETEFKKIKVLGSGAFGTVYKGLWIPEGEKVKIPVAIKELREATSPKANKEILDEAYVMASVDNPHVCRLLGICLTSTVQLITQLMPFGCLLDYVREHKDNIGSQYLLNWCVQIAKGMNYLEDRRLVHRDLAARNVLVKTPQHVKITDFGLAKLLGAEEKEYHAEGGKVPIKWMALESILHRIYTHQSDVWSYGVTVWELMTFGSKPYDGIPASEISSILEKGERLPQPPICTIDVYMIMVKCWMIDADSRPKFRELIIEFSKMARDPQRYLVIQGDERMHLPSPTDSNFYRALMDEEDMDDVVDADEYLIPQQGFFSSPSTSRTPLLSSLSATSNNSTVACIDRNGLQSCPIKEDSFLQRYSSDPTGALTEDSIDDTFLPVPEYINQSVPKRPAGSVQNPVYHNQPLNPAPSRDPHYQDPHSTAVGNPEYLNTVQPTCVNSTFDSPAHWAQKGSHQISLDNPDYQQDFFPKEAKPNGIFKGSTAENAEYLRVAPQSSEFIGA
Protein cereblon/Epidermal growth factor receptor (Homo sapiens), P00533+Q96SW2 [UNDEFINED MUTATION], sequence (Q96SW2 whole entry, looked up, stated change not applied): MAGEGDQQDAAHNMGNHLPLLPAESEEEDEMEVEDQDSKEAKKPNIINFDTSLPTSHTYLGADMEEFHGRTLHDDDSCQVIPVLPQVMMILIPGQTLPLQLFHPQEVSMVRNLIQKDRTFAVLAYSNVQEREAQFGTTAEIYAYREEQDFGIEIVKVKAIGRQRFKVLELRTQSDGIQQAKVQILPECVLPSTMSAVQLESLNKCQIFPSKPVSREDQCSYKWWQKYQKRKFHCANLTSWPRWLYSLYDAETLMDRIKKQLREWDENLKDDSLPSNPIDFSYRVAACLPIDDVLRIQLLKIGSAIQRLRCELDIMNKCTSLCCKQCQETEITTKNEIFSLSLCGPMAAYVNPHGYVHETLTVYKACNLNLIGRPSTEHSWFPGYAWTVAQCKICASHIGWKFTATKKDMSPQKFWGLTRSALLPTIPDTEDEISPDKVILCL

[16] = target: Protein cereblon/Epidermal growth factor receptor (Homo sapiens, UniProt P00533+Q96SW2); test: as §2; assay type: cell-based
Protein cereblon/Epidermal growth factor receptor (Homo sapiens, UniProt P00533+Q96SW2), sequence (P00533 whole entry, looked up, change not shown): as the sequence (P00533 whole entry, looked up, stated change not applied) above
Protein cereblon/Epidermal growth factor receptor (Homo sapiens, UniProt P00533+Q96SW2), sequence (Q96SW2 whole entry, looked up, change not shown): as the sequence (Q96SW2 whole entry, looked up, stated change not applied) above

[17] = Half-life in male Sprague-Dawley rat at 50 mg/kg, po measured after 24 hrs by LC-MS/MS analysis; assay type: ADME, organism-based; details: in vivo
[18] = target: Protein cereblon/Epidermal growth factor receptor (Homo sapiens, UniProt P00533+Q96SW2, T790M/C797S/L858R); test: PROTAC activity at CRBN/EGFR L858R/T790M/C797S mutant in human H1975-TM cells assessed as induction of EGFR degradation incubated for 24 hrs by Western blot analysis; assay type: cell-based
[19] = target: Epidermal growth factor receptor (Homo sapiens) (UniProt P00533); test: Inhibition of EGFR signaling in human H1975-TM cells harboring EGFR L858R/T790M/C797S mutant assessed as reduction in EGFR phosphorylation by Western blot analysis; assay type: cell-based; details: dose 1.2-300 nM
Epidermal growth factor receptor (Homo sapiens), sequence (P00533 whole entry): as the sequence (P00533 whole entry, looked up, stated change not applied) above

[20] = test system: Protein cereblon/Epidermal growth factor receptor (Homo sapiens), P00533+Q96SW2 [L858R,T790M,C797S]; test: as §1, with “at 50” for “at 100”, “preincubated with MLN4924” for “preincubated”, “for 6” for “for 24”, “compound addition” for “compound washout”, “after 24” for “after 6”; assay type: cell-based
[21] = test system: Protein cereblon/Epidermal growth factor receptor (Homo sapiens), P00533+Q96SW2 [L858R,T790M,C797S]; test: PROTAC activity at CRBN/EGFR L858R/T790M/C797S mutant in human H1975-TM cells assessed as induction of EGFR degradation by measuring remaining activity at 100 nM incubated for 24 hrs by Western blot analysis (reference value: 100%); assay type: cell-based
NCI-H1975 = test: Antiproliferative activity against human NCI-H1975 cells harboring EGFR L858R/T790M mutant assessed as inhibition of cell proliferation incubated for 72 hrs by CCK8 assay; assay type: functional, cell-based; details: NCI-H1975, 72 h
[22] = Antitumor activity against human H1975-TM cells xenografted in BALB/c nude mouse assessed as tumor growth inhibition at 25 mg/kg, po administered once daily for 31 days relative to control; assay type: functional; details: 744 h, time 31 day, read-out: TGI
[23] = Potency index, ratio of brigatinib IC50 to test compound IC50 for antiproliferative activity against human […] cells harboring EGFR L858R/T790M/C797S mutant assessed as inhibition of cell growth incubated for 72 hrs by CCK-8 assay; assay type: functional, H1975-TM
[24] = target: Epidermal growth factor receptor (Homo sapiens, UniProt P00533, C797S/L858R/T790M); test: Binding affinity to EGFR L858R/T790M/C797S mutant (unknown origin) assessed as dissociation constant incubated for 10 mins under dark condition by MST analysis
[25] = test system: Protein cereblon/Epidermal growth factor receptor (Homo sapiens), P00533+Q96SW2 [L858R,T790M,C797S]; test: PROTAC activity at CRBN/EGFR L858R/T790M/C797S mutant in human H1975-TM cells assessed as induction of EGFR degradation by measuring remaining activity at 3.7 nM incubated for 24 hrs by Western blot analysis (reference value: 100%); assay type: cell-based

**Q.** With `CCS(=O)(=O)n1cc(-c2nc(Nc3ccc(N4CCN(CCCCCCC(=O)Nc5cccc6c5CN(C5CCC(=O)NC5=O)C6=O)CC4)cc3)ncc2C(F)(F)F)c2ccccc21` (stereo unspecified) as the compound, how does the Activity [1] read?
**A.** Its Activity is “Non-Toxic”.

**Q.** And the Activity [2]?
**A.** The Activity was 36.1%.

**Q.** And the Emax [3]?
**A.** Its Emax is > 95%.

**Q.** And the Tmax [4]?
**A.** The Tmax was 4.8 min.

**Q.** And the half-life [5]?
**A.** Its half-life is 38 h.

**Q.** What about the Activity [6] of the same compound?
**A.** The Activity was 66.6%.

**Q.** And the Activity [7]?
**A.** The Activity was “Active”.

**Q.** And the Activity (H1975-TM [8])?
**A.** Its Activity is “Active”.

**Q.** And the inhibition (Mus musculus [9])?
**A.** Its inhibition is “Active”.

**Q.** And the inhibition (Mus musculus [10])?
**A.** Its inhibition is “Active”.

**Q.** What about the AUC(0-inf) [11] of the same compound?
**A.** Its AUC(0-inf) is 750 ng·h/mL.

**Q.** And the inhibition (Mus musculus [12])?
**A.** The inhibition was “Active”.

**Q.** And the inhibition (H1975-TM [13])?
**A.** Its inhibition is “Active”.

**Q.** And the Activity [14]?
**A.** Its Activity is 6.5%.

**Q.** What about the Activity [15] of the same compound?
**A.** The Activity was “Dose-Dependent Effect”.

**Q.** And the DC50 [16]?
**A.** The DC50 was 75.4 nM.

**Q.** What about the half-life [17] of the same compound?
**A.** Its half-life is 10.9 h.

**Q.** What about the DC50 [18] of the same compound?
**A.** The DC50 was 10.2 nM.

**Q.** And the inhibition [19]?
**A.** The inhibition was “Dose-Dependent Effect”.

**Q.** What about the Activity [20] of the same compound?
**A.** The Activity was 51.7%.

**Q.** And the Activity [21]?
**A.** The Activity was 2.3%.

**Q.** And the IC50 (NCI-H1975)?
**A.** Its IC50 is 46.2 nM.

**Q.** And the inhibition in vivo at 25 mg/kg [22]?
**A.** Its inhibition in vivo at 25 mg/kg is 48.1%.

**Q.** What about the “Ratio IC50” value [23] of the same compound?
**A.** Its value is 55.

**Q.** And the Kd [24]?
**A.** The Kd was 240 nM.

**Q.** What about the Activity [25] of the same compound?
**A.** The Activity was 46.6%.
